# Results reported in the supplement of paper PMC10307832.
# How the values were obtained:
# Experiment in all cases: relative viability (nuclei count vs DMSO), 5 days (fraction); higher = more cells survive
# MIM1 = compound: CC1=CSC(=NC2CCCCC2)N1/N=C/C3=C(C(=C(C=C3)O)O)O [MIM1]
# In short: (§1)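 Viability was read as treated-well nuclei divided by vehicle-well nuclei, using the median across plates. Lung cancer cell lines in 1536-well plates were kept overnight at 37 °C, pinned with five √10-spaced library-drug doses, and after 5 days were Hoechst-stained, imaged at 4× and counted in MetaXpress. Plates passed only with control CV below 25% and at least one doubling.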
# Luminespib = compound: CCNC(=O)c1noc(-c2cc(C(C)C)c(O)cc2O)c1-c1ccc(CN2CCOCC2)cc1 [Luminespib]
# In short: as §1
# Saracatinib = compound: CN1CCN(CCOc2cc(OC3CCOCC3)c3c(Nc4c(Cl)ccc5c4OCO5)ncnc3c2)CC1 [Saracatinib]
# In short: as §1
# Nilotinib = compound: Cc1cn(-c2cc(NC(=O)c3ccc(C)c(Nc4nccc(-c5cccnc5)n4)c3)cc(C(F)(F)F)c2)cn1 [Nilotinib]
# In short: as §1
# Lenalidomide = compound: Nc1cccc2c1CN(C1CCC(=O)NC1=O)C2=O [Lenalidomide]
# In short: as §1
Cell Line,relative viability (MIM1; 0.2 µM),relative viability (MIM1; 0.6325 µM),relative viability (MIM1; 2 µM),relative viability (MIM1; 6.325 µM),relative viability (MIM1; 20 µM),relative viability (Luminespib; 0.002 µM),relative viability (Luminespib; 0.006325 µM),"relative viability (Luminespib; 0.01 µM, anchor plate)",relative viability (Luminespib; 0.02 µM),relative viability (Luminespib; 0.06325 µM),relative viability (Luminespib; 0.2 µM),relative viability (Saracatinib; 0.02 µM),relative viability (Saracatinib; 0.2 µM),relative viability (Saracatinib; 0.6325 µM),relative viability (Saracatinib; 2 µM),relative viability (Nilotinib; 0.001 µM),relative viability (Nilotinib; 0.003162 µM),relative viability (Nilotinib; 0.01 µM),relative viability (Nilotinib; 0.03162 µM),relative viability (Nilotinib; 0.1 µM),relative viability (Lenalidomide; 0.253 µM),relative viability (Lenalidomide; 0.8 µM),relative viability (Lenalidomide; 2.53 µM),relative viability (Lenalidomide; 8 µM)
COR-L 105,1,0.878,0.986,0.769,0.412,0.873,0.913,0.822,0.627,0.232,0.24,1.08,0.868,0.769,0.542,1.11,0.915,1.13,0.87,0.845,0.976,0.971,1.05,1.01
Calu-6,1.03,0.928,0.967,0.444,0.242,1.03,0.892,,0.899,0.136,0.122,0.923,0.902,0.926,0.755,0.937,1.07,1.09,0.781,0.891,0.973,1.02,1.09,1.02
ChaGo-K-1,0.995,0.896,0.971,0.738,0.235,1.07,1.01,0.666,0.978,0.816,0.335,0.992,0.807,1.05,0.927,0.926,1.16,1.11,0.789,0.532,0.946,1.05,1.04,1.01
EBC-1,1.02,0.995,0.981,0.682,0.471,0.984,0.877,,0.326,0.128,0.142,1.1,0.933,1.11,1.08,0.818,1.16,1.1,0.679,0.725,1.03,1.04,1.1,0.955
EKVX,0.94,1,0.881,0.604,0.511,0.956,0.724,0.851,0.655,0.878,0.356,1.03,0.738,0.966,0.631,0.823,1.16,1.15,0.854,0.659,0.988,0.803,1.05,0.846
EMC-BAC-2,1.03,0.727,0.968,0.816,0.296,1,0.553,1.18,0.648,0.665,0.302,0.952,0.943,0.856,0.763,0.951,0.915,0.956,0.857,0.731,1.15,0.863,1,0.493
EPLC-272H,0.969,0.888,0.934,0.593,0.162,0.82,0.887,0.301,0.557,0.496,0.123,0.974,0.881,1.09,0.786,0.894,0.94,0.92,0.676,0.37,1.11,0.741,1.07,0.754
